Measurements taken from US12599642B2, “Compositions derived from Salvia hispanica seeds” (Signum Biosciences, priority 2020, dated 2026).
Marks after values point to notes of the source that are not given here.

Assays:
[1] = system: Staphylococcus aureus (ATCC® 29213™); experiment: Minimum inhibitory concentration, growth of S. aureus; format: cell-based; conditions: for MIC Staphylococcus aureus (ATCC ® 29213 ™): 90% inhibition of growth, aerobic, 24 hours, Table 6; for MIC Staphylococcus aureus (ATCC ® 29213): Table 14
Protocol: (§1) The inhibition of growth of Cutibacterium acnes and Staphylococcus aureus bacteria was measured according to the methods described in Nakatsuji et al., J Invest Dermatol, 2009, 129: 2480-2488; Traub and Leonhard, Chemotherapy, 1994; 40(6):374-383. In summary, the strain ATCC® 6919™ of C. acnes (American Type Culture Collection, Manassas, VA) was cultured on Reinforced Clostridium agar (BD 218081), under anaerobic conditions using Gas-Pak (B D, Sparks, MD) at 37° C. ATCC® 29213™ strain of S. aureus was cultured on tryptic soy agar (BD 211825), under aerobic conditions at 37° C. A single colony was inoculated in broth medium and cultured at 37° C. In addition to various positive controls, both the Final Product and the First Stage Product of the extraction process described in Example 1 were tested as described below. Test material was dissolved in 100% (v/v) DMSO. Doxycycline was dissolved in 100% (v/v) water. Samples of each test material and a solution of doxycycline were then each incubated with an inoculum of bacteria at a concentration of 1×10^6 CFU per mL, in broth medium in a 96-well microplate (0.1 mL per well) under aerobic conditions for 24 hours (S. aureus) or anaerobic conditions for 72 hours (C. acnes). Samples of each material were tested at final concentrations per well up to 4 mg/mL. A control well received only 5% (v/v) of DMSO or water. After 24-72 hours incubation, the bacteria cultures in the 96-well microplate were mixed well and then absorbance readings at 600 nm were taken to determine bacterial growth.

[2] = system: Cutibacterium acnes (ATCC® 6919™); experiment: Minimum inhibitory concentration, growth of C. acnes; format: cell-based; conditions: for MIC Cutibacterium acnes (ATCC ® 6919 ™): 90% inhibition of growth, anaerobic, 72 hours, Table 6; for MIC Cutibacterium acnes (ATCC ® 6919): Table 14
Protocol: as §1

[3] = Clinical trial, skin moisturization by Corneometer; format: in vivo, human; conditions: lower leg
Protocol: A single-blind, single-center clinical trial was conducted with 6 healthy volunteers of either sex to evaluate the moisturization efficacy of a moisturizing cream (formulated as shown below in Table 8) containing the composition prepared using the process of Example 9, vehicle (i.e., the formulation of Table 8 minus the active ingredient-i.e., the chia seed composition), a negative control (untreated), and two positive controls (petroleum jelly and glycerin). The objective of this study was to evaluate the moisturization efficacy (as measured by Corneometer®) and to evaluate the relative degree of improvement to skin barrier functionality of two test articles as measured by Trans Epidermal Water Loss (TEWL) assessments when tested in 16 healthy subjects. See, e.g., Johan du […] et al., International Guidelines for The In Vivo Assessment Of Skin Properties In Noel-Clinical Settings: Part 2. Transepidermal Water Loss and Skin Hydration, Skin Res. Technol. 19(3), 265-278 (2013); C. W. Blichmann and J. Serup, Assessment of Skin Moisture. Measurement of Electrical Conductance: Capacitance and Transepidermal Water Loss, Acta Derm. Venereol. 68(4): 284-290 (1988). On day -3 of the study, subjects were given a bland soap product (e.g., Simple® Soap) to use on their lower legs for the three days prior to the active phase. They were instructed not to use any other treatment products on their lower legs for the next 3 days (the “Washout Phase”). These products included moisturizing foam baths, shower gels or soaps, lotions and creams, and depilatory products. As part of the pre-treatment assessment, subjects sat resting for a period of at least 30 minutes in a controlled environment at a temperature of 22° C.±2° C. and at a relative humidity of 45%±5%. Following the rest period, their lower legs were marked with a total of four 5 cm×5 cm squares. Moisturization measurements to study the humectant properties of the test articles were performed using the Corneometer® CM825 (Courage and Khazaka, Germany). This instrument relies on the dielectric constant, a physical property of water, which is relatively high and as such will affect the capacitance of a capacitor. Any change in the dielectric constant due to skin moisture variations would alter the capacitance of the precision capacitor in the instrument. These variations were detected electronically and converted into a value by the Corneometer®. A 15-minute warm-up period was allowed before using the Corneometer®. Following assessments of skin hydration by a Corneometer®, a single application of the test articles (i.e., the chia seed formulation and vehicle alone) was made to the lower leg. Further Corneometer® assessments were then performed at 2, 8, and 24-hours following test article application. […]

[4] = system: human pre-adipocyte cells; experiment: Lipolysis assay, glycerol release; format: cell-based; conditions: 100 μM, 8 hours
Text: Lipolysis is the process in which triglycerides (TG) are hydrolyzed into glycerol and free fatty acids. This process releases free fatty acids (FFA) into the bloodstream where they may be either re-esterified by the adipocyte or travel to other tissues and exert other effects throughout the body. The purpose of this study was to evaluate the lipolysis via measure of the glycerol molecule released in lipolysis process. Here, we evaluated the potential capacity of the chia seed extract composition of Example 1 in cultured human pre-adipocyte cells. Cells were seeded in medium and incubated for 7 days. Neat solutions of the enriched free acid chia seed extract composition of Example 1 were prepared formulated in methanol. Cells were pre-treated for 8 hours with or without test material in media.
A Lipolysis Assay Kit (Cat. No. Lip-1) was obtained from Zen-Bio, Inc. (Research Triangle, NC) and used to determine glycerol levels (μM) based on the methodology described below. Glycerol released to the medium is phosphorylated by […] (ATP) forming glycerol-1-phosphate (G-1-P) and adenosine-5′-diphosphate (ADP) in the reaction catalyzed by glycerol kinase. G-1-P is then oxidized by glycerol phosphate oxidase to dihydroxyacetone phosphate (DAP) and hydrogen peroxide. […] The increase in absorbance at 540 nm is directly proportional to glycerol concentration of the sample. […]

PME-1 = biological target: T1, PME-1 (Homo sapiens, UniProt Q9Y570); experiment: PP2A demethylation by PME-1, radioactive filter binding assay; format: biochemical
T1 construct: made in house
T1 sequence (Q9Y570 1-386): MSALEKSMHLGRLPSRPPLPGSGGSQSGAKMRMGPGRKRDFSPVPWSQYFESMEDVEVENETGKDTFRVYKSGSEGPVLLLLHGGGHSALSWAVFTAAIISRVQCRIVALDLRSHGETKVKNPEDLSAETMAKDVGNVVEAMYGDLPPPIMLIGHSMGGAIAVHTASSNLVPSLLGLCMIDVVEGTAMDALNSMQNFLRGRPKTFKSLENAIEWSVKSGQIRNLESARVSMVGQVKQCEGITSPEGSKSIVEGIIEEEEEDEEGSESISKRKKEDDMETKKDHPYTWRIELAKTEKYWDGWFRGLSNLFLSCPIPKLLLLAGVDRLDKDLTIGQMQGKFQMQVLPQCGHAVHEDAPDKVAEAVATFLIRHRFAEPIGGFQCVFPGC
Protocol: Compositions were created using the extraction methods as generally described in Example 1. These compositions were assayed for their ability to preserve the methylation status of PP2A AC dimer in the presence of protein phosphatase methylesterase-1 (PME-1), using a radioactive filter binding assay.
PP2A-AC dimer was prepared as previously described in Tolstykh T, Lee J, Vafai S, Stock J B. Carboxyl methylation regulates phosphoprotein phosphatase 2A by controlling the association of regulatory B subunits. EMBO J. 2000; 19(20:5682-5691. Additional purification was performed with a HiPrep™ 16/60 Sephacryl® S100 HR in a buffer composed of 50 mM MOPS pH 7.2, 1.0 mM EDTA, 1.0 mM dithiothreitol (DTT), and 0.50 μg/ml each of aprotinin, leupeptin and pepstatin. Leucine carboxyl methytransferase-1 (LCMT-1) and Protein phosphatase methylesterase-1 (PME-1) were prepared using the methods as previously described Xing Y, Li Z, Chen Y, Stock J B, Jeffrey P D, Shi Y. Structural mechanism of demethylation and inactivation of protein phosphatase 2A. Cell. 2008; 133(I):154-163.
[3H]-labeled methylated PP2A AC dirtier was prepared by incubating PP2A, LCMT1 and [3H]-SAM (PerkinElmer; Waltham, Mass.) in 50 mM MOPS-Na (pH 7.2), 5 mM MgCl2, and 1 mM DTT at room temperature for 1 hour. Demethylation of PP2A by PME-1 was measured using the radioactive filter binding assay format. 20 nM PME-1 was incubated for 15 minutes with extract or compound, then 20 nM of [3H]-labeled methylated PP2A AC dimer was added. Reactions were run at room temperature for 30 minutes and then applied to a 96-well filter plate (Millipore Co.) containing 30% TCA where proteins were precipitated and separated from the excess of [3H]-SAM by washing with 70% ethanol. [3H]-incorporation was measured using TopCount NXT scintillation counter (PerkinEimer; Waltham, MA). IC50 values were generated from dose-response curves using a four-parameter logistic curve fit using SigmaPlot software (Systat Software, San Jose, CA).

MIC Staphylococcus aureus (ATCC ® 29213 ™) [1] [μg\mL] | MIC Staphylococcus aureus (ATCC ® 29213) [1] [μg\mL] | MIC Cutibacterium acnes (ATCC ® 6919 ™) [2] [μg\mL] | MIC Cutibacterium acnes (ATCC ® 6919) [2] [μg\mL] | SMILES | further results
500 | 500 | 500 | 500 | O=C(OOC(=O)c1ccccc1)c1ccccc1 [Benzoyl peroxide] | –
2000 | 2000 | 1000 | 500 | O=C(O)c1ccccc1O [Salicylic Acid] | –

Second part, the compound before the results:

SMILES | MIC Staphylococcus aureus (ATCC ® 29213 ™) [1] [μg\mL] | MIC Staphylococcus aureus (ATCC ® 29213) [1] [μg\mL] | MIC Cutibacterium acnes (ATCC ® 6919 ™) [2] [μg\mL] | MIC Cutibacterium acnes (ATCC ® 6919) [2] [μg\mL] | further results
C[C@H]1c2cccc(O)c2C(=O)C2=C(O)[C@]3(O)C(=O)C(C(N)=O)=C(O)[C@@H](N(C)C)[C@@H]3[C@@H](O)[C@@H]21 [Doxycycline] | 0.2 | 0.2 | 0.6 | 0.6 | –
OCC(O)CO [Positive Control (glycerine), glycerine] | – | – | – | – | Mean Corneometer ® Values ([3]; 0 hours (before application)): 22.7; Mean Corneometer ® Values ([3]; 2 hours after single application): 127.1; Mean Corneometer ® Values ([3]; 8 hours after single application): 106.8; Mean Corneometer ® Values ([3]; 24 hours after single application): 82.3
CC(C)Cn1c(=O)n(C)c(=O)c2[nH]cnc21 [IBMX, 3-isobutyl-1-methylxanthine] | – | – | – | – | Glycerol Levels, Avg [4]: 8.8* (p < 0.01 μM; Glycerol Levels, Fold Improvement [4]: 6.4
CCCCC/C=C\C/C=C\CCCCCCCC(=O)O [LA, cis,cis-9,12-octadecadienoic acid] | – | – | – | – | [LA] at which 50% PP2A inhibition is achieved (PME-1; regardless of [ALA]): ≥ 1 µg/mL
CC/C=C\C/C=C\C/C=C\CCCCCCCC(=O)O [ALA, cis,cis,cis-9,12,15-octacedatriencoic acid] | – | – | – | – | [ALA] necessary to obtain 50% PP2A inhibition (PME-1; [LA]=0 μg/mL): > 8 µg/mL; [ALA] necessary to obtain 50% PP2A inhibition (PME-1; [LA]=0.5 μg/mL): > 4 µg/mL
